Measurements published in publication PMC8286840, “Identifying SARS-CoV-2 antiviral compounds by screening for small molecule inhibitors of Nsp3 papain-like protease” (Biochemical Journal, 2021).
Structures can show the parent of a compound that is named as a salt. Where two headings read alike, the source gives them in different places. Where a SMILES comes first, the peptide text is derived from it. [ ]: non-standard residue; d: D form. Dolaproine = CO[C@@H]([C@@H]1CCCN1)[C@@H](C)C(=O)O; Dil = CC[C@H](C)[C@H](NC)[C@@H](CC(=O)O)OC; NMeV = CN[C@H](C(=O)O)C(C)C

Key:
[1] = biological target: T1, SARS-CoV-2 PLpro (nsp3 1564–1878) (Severe acute respiratory syndrome coronavirus 2, UniProt P0DTD1); test: biochemical; design: FRET-quenched peptide (Pro3) cleavage by PLpro, 10 min pre-incubation, slope over 20 min, normalised to no-compound control; conditions: read-out: % of control remaining
[2] = biological target: T1, SARS-CoV-2 PLpro (nsp3 1564–1878); test: biochemical; design: FRET-quenched peptide (Pro3) cleavage by PLpro, 10 min pre-incubation, slope over 20 min, normalised to no-compound control; conditions: read-out: % of control remaining; remark: listed apart in the source

## NC1(c2ccc(-c3nc4ccn5c(=O)[nH]nc5c4cc3-c3ccccc3)cc2)CCC1 [MK-2206 2HCl]
[1]; Well no.=4625, low concentration screen
  remaining activity at 1.25 µM: 102%
[2]; Well no.=4625, high concentration screen
  remaining activity at 3.75 µM: 102%

## CN(C[C@@H]1COCCO1)S(=O)(=O)Nc1ccc2ccc3ncc(-c4cnn(C)c4)cc3c(=O)c2c1 [MK-2461]
[1]; Well no.=4737, low concentration screen
  remaining activity at 1.25 µM: 105%
[2]; Well no.=4737, high concentration screen
  remaining activity at 3.75 µM: 105%

## Cc1sc(C)c(C(=O)NC2(c3ccc(C(=O)O)cc3)CC2)c1Cc1ccc(C(F)(F)F)cc1 [MK-2894]
[1]; Well no.=7101, low concentration screen
  remaining activity at 1.25 µM: 94.3%
[2]; Well no.=7101, high concentration screen
  remaining activity at 3.75 µM: 90.7%

## O=C(CN1C(=O)C2(CCCC2)NC[C@H]1c1cc(F)cc(F)c1)Nc1ccc2c(c1)C[C@@]1(C2)C(=O)Nc2ncccc21 [MK-3207 (Hydrochloride)]
[1]; Well no.=6950, low concentration screen
  remaining activity at 1.25 µM: 93.4%
[2]; Well no.=6950, high concentration screen
  remaining activity at 3.75 µM: 93.6%

## COc1ccc(CNC(=O)c2cc(-c3cncc(C)c3)ncc2-c2nccs2)nc1OC [MK-3697]
[1]; Well no.=7867, low concentration screen
  remaining activity at 1.25 µM: 107%
[2]; Well no.=7867, high concentration screen
  remaining activity at 3.75 µM: 95.1%

## O=C(O)[C@]1(Cc2cccc(Nc3nccs3)n2)CC[C@@H](Oc2cccc(Cl)c2F)CC1 [MK-5108 (VX-689)]
[1]; Well no.=4733, low concentration screen
  remaining activity at 1.25 µM: 101%
[2]; Well no.=4733, high concentration screen
  remaining activity at 3.75 µM: 97.2%

## CC(C)(Cc1nc(-c2ccc(O)cn2)no1)C(=O)NC1=C(C(=O)O)CCCC1 [MK-6892]
[1]; Well no.=7953, low concentration screen
  remaining activity at 1.25 µM: 101%
[2]; Well no.=7953, high concentration screen
  remaining activity at 3.75 µM: 100%

## O=C(O)Cn1nnc(-c2cc(N3CCC(Oc4cc(F)ccc4Br)CC3)no2)n1 [MK-8245]
[1]; Well no.=4842, low concentration screen
  remaining activity at 1.25 µM: 90.5%
[2]; Well no.=4842, high concentration screen
  remaining activity at 3.75 µM: 85.1%

## O=C(N[C@H]1CN2CCC1CC2)c1c[nH]c2ccsc2c1=O [MKC-733]
[1]; Well no.=5899, low concentration screen
  remaining activity at 1.25 µM: 105%
[2]; Well no.=5899, high concentration screen
  remaining activity at 3.75 µM: 108%

## Cc1ccc(S(=O)(=O)n2c(N)nc3ccccc32)cc1 [ML130]
[1]; Well no.=4829, low concentration screen
  remaining activity at 1.25 µM: 101%
[2]; Well no.=4829, high concentration screen
  remaining activity at 3.75 µM: 101%

## COc1ccc(CNCc2cccc3ccccc23)cc1 [ML133 HCl]
[1]; Well no.=4793, low concentration screen
  remaining activity at 1.25 µM: 97.9%
[2]; Well no.=4793, high concentration screen
  remaining activity at 3.75 µM: 96.1%

## Cc1cc(NC(=O)CS(=O)(=O)c2cn(Cc3cc(Br)ccc3F)c3ccccc23)no1 [ML169]
[1]; Well no.=5507, low concentration screen
  remaining activity at 1.25 µM: 99%
[2]; Well no.=5507, high concentration screen
  remaining activity at 3.75 µM: 97.5%

## COC(=O)c1cnn(-c2ccc(F)cc2F)c1/C=N/NC(=S)NC(C)(C)C [ML194]
[1]; Well no.=5766, low concentration screen
  remaining activity at 1.25 µM: 99.4%
[2]; Well no.=5766, high concentration screen
  remaining activity at 3.75 µM: 95.8%

## CCN1CCN(C(c2ccc(C(F)(F)F)cc2)c2ccc3cccnc3c2O)CC1 (centres unmarked) [ML311]
[1]; Well no.=6532, low concentration screen
  remaining activity at 1.25 µM: 99.7%
[2]; Well no.=6532, high concentration screen
  remaining activity at 3.75 µM: 99.6%

## COc1cc2nc(C3CC3)nc(N3CCN(c4ccccc4OC)CC3)c2cc1OC [ML314]
[1]; Well no.=7913, low concentration screen
  remaining activity at 1.25 µM: 97.1%
[2]; Well no.=7913, high concentration screen
  remaining activity at 3.75 µM: 98.2%

## O=C(NCCCNC(=O)c1ccc[nH]c1=O)c1cc(-c2ccccc2)on1 [ML327]
[1]; Well no.=7164, low concentration screen
  remaining activity at 1.25 µM: 101%
[2]; Well no.=7164, high concentration screen
  remaining activity at 3.75 µM: 93.7%

## NS(=O)(=O)c1ccc(NC2=CC(=O)c3ccccc3C2=O)cc1 [ML329]
[1]; Well no.=8264, low concentration screen
  remaining activity at 1.25 µM: 91.6%
[2]; Well no.=8264, high concentration screen
  remaining activity at 3.75 µM: 90.3%

## COc1cccc(CNc2ccc(S(=O)(=O)Nc3nc4ccccc4s3)cc2)c1O [ML355]
[1]; Well no.=7648, low concentration screen
  remaining activity at 1.25 µM: 97.9%
[2]; Well no.=7648, high concentration screen
  remaining activity at 3.75 µM: 96.7%

## COc1cc(N)c(Cl)cc1C(=O)OCCN1CCCCC1 [ML 10302]
[1]; Well no.=5486, low concentration screen
  remaining activity at 1.25 µM: 98.8%
[2]; Well no.=5486, high concentration screen
  remaining activity at 3.75 µM: 100%

## O=S(=O)(c1cccc2c(I)cccc12)N1CCCNCC1 [ML-7, Hydrochloride]
[1]; Well no.=2491, low concentration screen
  remaining activity at 1.25 µM: 103%
[2]; Well no.=2491, high concentration screen
  remaining activity at 3.75 µM: 103%

## Cc1ccc(C)c(OCCn2cc(C(=O)O)c3ccccc32)c1 [ML-098]
[1]
  remaining activity at 1.25 µM: 98.4%
[2]
  remaining activity at 3.75 µM: 97.6%

## CCCC(=O)Nc1cccc(NC(=O)c2ccccc2Br)c1 [ML-161]
[1]; Well no.=4845, low concentration screen
  remaining activity at 1.25 µM: 95%
[2]; Well no.=4845, high concentration screen
  remaining activity at 3.75 µM: 93%

## CC(C)C[C@H](NC(=O)CNC(=O)c1cc(Cl)ccc1Cl)B(O)O [MLN2238]
[1]; Well no.=4808, low concentration screen
  remaining activity at 1.25 µM: 96.1%
[2]; Well no.=4808, high concentration screen
  remaining activity at 3.75 µM: 97.1%

## O=C(O)c1ccc(Nc2ncc3c(n2)-c2ccc(Cl)cc2C(c2c(F)cccc2F)=NC3)cc1 [MLN8054]
[1]; Well no.=4659, low concentration screen
  remaining activity at 1.25 µM: 105%
[2]; Well no.=4659, high concentration screen
  remaining activity at 3.75 µM: 98.1%

## CC(C)C[C@H](NC(=O)CNC(=O)c1cc(Cl)ccc1Cl)B1OC(=O)C(CC(=O)O)(CC(=O)O)O1 [MLN9708]
[1]; Well no.=4810, low concentration screen
  remaining activity at 1.25 µM: 101%
[2]; Well no.=4810, high concentration screen
  remaining activity at 3.75 µM: 103%

## CC[C@H](C)[C@@H]([C@@H](CC(=O)N1CCC[C@H]1[C@H](OC)[C@@H](C)C(=O)N[C@@H](Cc1ccccc1)C(=O)O)OC)N(C)C(=O)[C@@H](NC(=O)[C@@H](NC)C(C)C)C(C)C [MMAF (Hydrochloride)] (H-[NMeV]V[Dil][Dolaproine]F-OH)
[1]; Well no.=7650, low concentration screen
  remaining activity at 1.25 µM: 89.6%
[2]; Well no.=7650, high concentration screen
  remaining activity at 3.75 µM: 89.5%

## CC[C@H](C)[C@@H]([C@@H](CC(=O)N1CCC[C@H]1[C@H](OC)[C@@H](C)C(=O)N[C@@H](Cc1ccccc1)C(=O)OC)OC)N(C)C(=O)[C@@H](NC(=O)[C@@H](NC)C(C)C)C(C)C [MMAF-OMe] (H-[NMeV]V[Dil][Dolaproine]F-OMe)
[1]; Well no.=7600, low concentration screen
  remaining activity at 1.25 µM: 101%
[2]; Well no.=7600, high concentration screen
  remaining activity at 3.75 µM: 97.1%

## O/N=C/c1cc[n+](C[n+]2ccc(/C=N/O)cc2)cc1 [MMB-4]
[1]
  remaining activity at 1.25 µM: 95.4%
[2]
  remaining activity at 3.75 µM: 93.7%

## S=C(NCc1ccc2c(c1)OCO2)N1CCN(c2ncnc3c2oc2ccccc23)CC1 [MP-470]
[1]; Well no.=2745, low concentration screen
  remaining activity at 1.25 µM: 103%
[2]; Well no.=2745, high concentration screen
  remaining activity at 3.75 µM: 104%

## Cc1cccc(C#Cc2ccccc2)n1 [MPEP (Hydrochloride)]
[1]; Well no.=8541, low concentration screen
  remaining activity at 1.25 µM: 96.2%
[2]; Well no.=8541, high concentration screen
  remaining activity at 3.75 µM: 90.4%

## CC(C)N(CCCCOCC(=O)O)c1cnc(-c2ccccc2)c(-c2ccccc2)n1 [MRE-269]
[1]; Well no.=7719, low concentration screen
  remaining activity at 1.25 µM: 107%
[2]; Well no.=7719, high concentration screen
  remaining activity at 3.75 µM: 105%

## CCCOC(=O)c1c(-c2ccccc2)nc(CC)c(C(=O)SCC)c1CCC [MRS 1523]
[1]; Well no.=1064, low concentration screen
  remaining activity at 1.25 µM: 95.3%
[2]; Well no.=1064, high concentration screen
  remaining activity at 3.75 µM: 94.2%

## CCCn1c(=O)c2[nH]c(-c3ccc(OCC(=O)Nc4ccc(C#N)cc4)cc3)nc2n(CCC)c1=O [MRS 1754]
[1]; Well no.=788, low concentration screen
  remaining activity at 1.25 µM: 97.4%
[1]; Well no.=8407, low concentration screen
  remaining activity at 1.25 µM: 101%
[2]; Well no.=788, high concentration screen
  remaining activity at 3.75 µM: 97.6%
[2]; Well no.=8407, high concentration screen
  remaining activity at 3.75 µM: 95.8%

## C#CCN1C(C)=C(C(=O)OC)C(c2cccc([N+](=O)[O-])c2)C(C(=O)OCC)=C1C (centres unmarked) [MRS 1845]
[1]; Well no.=968, low concentration screen
  remaining activity at 1.25 µM: 95.8%
[2]; Well no.=968, high concentration screen
  remaining activity at 3.75 µM: 96.5%

## Cc1nc(N=Nc2ccc(C(=O)O)cc2)c(COP(=O)(O)O)c(C=O)c1O [MRS 2159]
[1]; Well no.=1030, low concentration screen
  remaining activity at 1.25 µM: 102%
[2]; Well no.=1030, high concentration screen
  remaining activity at 3.75 µM: 101%

## CNc1ncnc2c1ncn2[C@H]1C[C@H](OP(=O)(O)O)[C@@H](COP(=O)(O)O)O1 [MRS 2179]
[1]; Well no.=926, low concentration screen
  remaining activity at 1.25 µM: 98.6%
[2]; Well no.=926, high concentration screen
  remaining activity at 3.75 µM: 103%
